Reference: patent US4410544A, “Platinum-diamine complexes, a method for the preparation of a medicine using such a platinum-diamine complex for the treatment of malignant tumor in mice” (priority 1978, dated 1983)

Tests used:
[1] = tested on: B 16 melanocarcinoma (B1); assay: Anti-cancerous activity in mice, B 16 melanocarcinoma (B1); assay type: in vivo, mouse; conditions: B16, B6 D2 (BDF) mice
Description: (§1) An extensive research program carried out by the National Cancer Institute, Bethesda, Md., and the European Organization for Research on the Treatment of Cancer, Brussels, Belgium, has shown that when compared to PDD, compounds according to this invention, particularly compounds having the following formulas display a high therapeutic activity against a great number of different mammalian types of tumor, such as P 388 lymphocytic leukemia (PS), L-1210 lymphoid leukemia (LE), ependymoblastoma (EM), B 16 melanocarcinoma (B1) and a line of L-1210 leukemia resistant to cis-PDD (LE/cis-PDD): [drawing 9]
(§2) More detailed information concerning the testing procedure and their interpretation are contained in Instruction 14, Screening Data Summary, Interpretation and Outline of Current Screen, Drug Evaluation Branch, National Cancer Institute, Bethesda, Md., 20014 (1977) which is incorporated herein by reference.
(§3) *Period of survival is the ratio of survival times of the treated mice (T
(§4) to untreated mice (C); the therapeutic activity is significant at T/C
(§5) ≥ 125. The figures include dying mice only. A cure is defined as a
(§6) mouse free of tumors 45 days after injection, as determined by visual

[2] = tested on: L-1210 lymphoid leukemia (LE); assay: Anti-cancerous activity in mice, L-1210 lymphoid leukemia (LE); assay type: in vivo, mouse
Description: as §1, §2, §3, §4, §5, §6
(§7) **For Formula 12-cis PDD the mice were injected with 10^6 L1210
(§8) ascites cells. One I.P. injection of the test compound was given to each

[3] = tested on: P 388 lymphocytic leukemia (PS); assay: Anti-cancerous activity in mice, P 388 lymphocytic leukemia (PS); assay type: in vivo, mouse; conditions: CD2 F1 mice
Description: as §1, §2, §3, §4, §5, §6

[4] = Lethal doses LD10 / LD50 given with the BUN test in the rat
[5] = tested on: ependymoblastoma (EM); assay: Anti-cancerous activity in mice, ependymoblastoma (EM); assay type: in vivo, mouse
Description: as §1, §2, §3, §4, §5, §6

[6] = tested on: L-1210 leukemia resistant to cis-PDD (LE/cis-PDD); assay: Anti-cancerous activity in mice, L-1210 leukemia resistant to cis-PDD (LE/cis-PDD); assay type: in vivo, mouse; conditions: for cures (mice free of tumors 45 days after injection) / T/C (period of survival, treated/untreated): LE/cis PDD, BDF1 mice; for cures (mice free of tumors 45 days after injection): of six mice; for T/C (period of survival, treated/untreated): one I.P. injection; for effectiveness against the cis-PDD resistant line of L-1210 versus the parent line: mice
Description: as §1, §2, §3, §4, §5, §6, §7, §8

[7] = literature; cited from earlier work
[8] = literature; cited from earlier work; remark: listed apart in the source
[9] = tested on: cancer; conditions: literature, cited from earlier work
[10] = Urea-nitrogen in the blood after administering platinum complexes (in the rat); assay type: in vivo
Method: Percentage of urea-nitrogen in the blood after
administering platinum complexes (in the rat).
Both at doses corresponding with the LD10 -amount and at those corresponding with the LD50 -amount the urea-nitrogen contents in the blood are identical to the control values. BUN values≥30 mg% are generally considered indicative of drug-induced nephrotoxicity. […] In was found by means of a histological examination of rats after treatment with toxic doses of compounds of this invention, that these compounds display little or no kidney toxicity.

[11] = tested on: mammalian types of tumor; assay: Therapeutic activity against mammalian tumors (NCI / EORTC program); assay type: in vivo, mouse; conditions: mice; Table A experiments
Description: as §1, §2

[12] = CD2 F1 mice, 12.50 mg/kg per injection
[13] = 6.25 mg/kg per injection, significant at T/C ≥ 125
[14] = BDF1 mice, 50.00 mg/kg, one I.P. injection, 10^6 L1210 ascites cells

## NCC1(CN)CCCCC1.[Cl][Pt][Cl] [Formula 4, Cis-dichloro-1,1-di(aminomethyl)cyclohexane platinum(II)]
[1]; 1.50 mg/kg per injection
  T/C (period of survival, treated/untreated): 190%
[1]; 3.00 mg/kg per injection
  T/C (period of survival, treated/untreated): 208%
[1]; 6.00 mg/kg per injection
  T/C (period of survival, treated/untreated): 208%
[2]; CD2 F1 mice, 3.12 mg/kg per injection
  T/C (period of survival, treated/untreated): 145%
[2]; CD2 F1 mice, 6.25 mg/kg per injection
  T/C (period of survival, treated/untreated): 180%
[2]; [12]
  T/C (period of survival, treated/untreated): 234%
[3]; 1.56 mg/kg per injection
  T/C (period of survival, treated/untreated): 153%
[3]; 3.12 mg/kg per injection
  T/C (period of survival, treated/untreated): 181%
[3]; [13]
  T/C (period of survival, treated/untreated): 201%
[4]
  LD10: 8 mg/kg
  LD50: 15 mg/kg
[5]; C57BL/6 mice, 6.00 mg/kg per injection
  T/C (period of survival, treated/untreated): 126%

## NCC1(CN)CCCCC1.O=C1[O][Pt][O]C(=O)C12CCCCC2 [Formula 7, Cis-cyclopentamethylene malonato-1,1-di(aminomethyl)cyclohexane platinum(II)]
[2]; CD2 F1 mice, 80.00 mg/kg per injection
  T/C (period of survival, treated/untreated): 138%
[3]; [13]
  T/C (period of survival, treated/untreated): 162%
[3]; 12.50 mg/kg per injection
  T/C (period of survival, treated/untreated): 177%
[3]; 25.00 mg/kg per injection
  T/C (period of survival, treated/untreated): 226%
[5]; 57BL/6 mice, 6.25 mg/kg per injection
  T/C (period of survival, treated/untreated): 130%
[5]; 57BL/6 mice, 12.50 mg/kg per injection
  T/C (period of survival, treated/untreated): 163%

## CCC(C)(CN)CN.[Cl][Pt][Cl] [Formula 8, Cis-dichloro-(2-methyl-2-ethyl)-1,3-propane diamine platinum (II)]
[2]; [12]
  T/C (period of survival, treated/untreated): 289%

## CCC(CC)(CN)CN.[Cl][Pt][Cl] [Formula 9, Cis-dichloro-2,2-diethyl-1,3-propane diamine platinum(II)]
[2]; [12]
  T/C (period of survival, treated/untreated): 323%

## NCC1(CN)CCCC1.[Cl][Pt][Cl] [Formula 10, Cis-dichloro-1,1-di(aminomethyl)cyclopentane platinum(II)]
[2]; [12]
  T/C (period of survival, treated/untreated): 148%

## NCC1(CN)CCCCC1.O=S(=O)([O-])[O-].[Pt+2] [Formula 11, Cis-1,1-di(aminomethyl)cyclohexane platinum(II) sulphate]
[2]; [12]
  T/C (period of survival, treated/untreated): 274%

## NCC1(CN)CCC1.[Cl-].[Cl-].[Pt+2] [Formula 12, Cis-dichloro-1,1-di(aminomethyl)cyclobutane platinum(II)]
[2]; BDF1 mice, 15.00 mg/kg, one I.P. injection, 10^6 L1210 ascites cells
  T/C (period of survival, treated/untreated): 208%

## NCC(CN)(Cc1ccccc1)Cc1ccccc1.[Cl][Pt][Cl] [Formula 13, Cis-dichloro-2,2-dibenzyl-1,3-propane diamine platinum(II)]
[2]; [14]
  T/C (period of survival, treated/untreated): 135%

## CC(C)C(CN)(CN)C(C)C.[Cl-].[Cl-].[Pt+2] [Formula 14, Cis-dichloro-2,2-diisopropyl-1,3-propane diamine platinum(II)]
[2]; [14]
  T/C (period of survival, treated/untreated): 178%

## NCC1(CN)CCCCC1.O=C(O)c1ccc2c(c1)C(=O)[O][Pt][O]C2=O [Formula 15, Cis-4-carboxyphthalato-1,1-di(aminomethyl)-cyclohexane platinum (II)]
[2]; BDF1 mice, 40.00 mg/kg, one I.P. injection, 10^6 L1210 ascites cells
  T/C (period of survival, treated/untreated): 200%

## NCC1(CN)CCCCC1.O=C(CCl)[O][Pt][O]C(=O)CCl [Formula 16, Cis-1,1-di(aminomethyl)-cyclohexane-bis(chloroacetato)platinum(II)]
[2]; BDF1 mice, 6.00 mg/kg, one I.P. injection, 10^6 L1210 ascites cells
  T/C (period of survival, treated/untreated): 207%

## CCC(CC)(CN)CN.O=S(=O)([O-])[O-].[Pt+2] [Formula 17, Cis-2,2-diethyl-1,3-propanediamine platinum(II) sulphate]
[2]; BDF1 mice, 12.00 mg/kg, one I.P. injection, 10^6 L1210 ascites cells
  T/C (period of survival, treated/untreated): 200%
[6]; 6.00 mg/kg
  cures (mice free of tumors 45 days after injection): 3/6
  T/C (period of survival, treated/untreated): > 500%
[6]
  effectiveness against the cis-PDD resistant line of L-1210 versus the parent line: even more effective against the cis-PDD resistant line of L-1210 than they are against the parent line of L-1210

## NCC1(CN)CCCCC1.O=C([O-])CC(=O)[O-].[Pt+2] [Formula 18, Cis-1,1-di(aminomethyl)-cyclohexanemalonato platinum(II)]
[2]; BDF1 mice, 64.00 mg/kg, of six mice
  cures (mice free of tumors 45 days after injection): 1/6
[2]; BDF1 mice, 64.00 mg/kg, one I.P. injection, dying mice only
  T/C (period of survival, treated/untreated): 200%
[6]; 16.00 mg/kg
  T/C (period of survival, treated/untreated): 230%
[6]
  effectiveness against the cis-PDD resistant line of L-1210 versus the parent line: even more effective against the cis-PDD resistant line of L-1210 than they are against the parent line of L-1210

## NCC1(CN)CCCCC1.O=C1[O][Pt][O]C(=O)C1O [Formula 19, Cis-1,1-di(aminomethyl)cyclohexanehydroxymalonato platinum(II)]
[2]; BDF1 mice, 36.00 mg/kg, one I.P. injection, 10^6 L1210 ascites cells
  T/C (period of survival, treated/untreated): 246%
[6]; 24.00 mg/kg
  cures (mice free of tumors 45 days after injection): 3/6
  T/C (period of survival, treated/untreated): > 500%
[6]
  effectiveness against the cis-PDD resistant line of L-1210 versus the parent line: even more effective against the cis-PDD resistant line of L-1210 than they are against the parent line of L-1210

## cis-dichlorobiscyclopentyl amine platinum(II)
[7]
  kidney toxicity: only slightly toxic to the kidneys
[8]
  spleen toxicity: toxic to the spleen

## cis-platinum diamine dichloride [PDD]
[9]
  therapeutic index: low therapeutic index
[9]; treatment of cancer
  toxicity: Toxicity is a very serious drawback
[1]; 2.00 mg/kg per injection
  T/C (period of survival, treated/untreated): 197%
[2]; BDF1 mice, 8.00 mg/kg, one I.P. injection, 10^6 L1210 ascites cells
  T/C (period of survival, treated/untreated): 183%
[10]; 3 mg/kg (LD10), 0 days after injection
  Percentage of urea-nitrogen in blood: 10%
[10]; 3 mg/kg (LD10), 2 days after injection
  Percentage of urea-nitrogen in blood: 13%
[10]; 3 mg/kg (LD10), 4 days after injection
  Percentage of urea-nitrogen in blood: 52%
[10]; 7.6 mg/kg (LD50), 0 days after injection
  Percentage of urea-nitrogen in blood: 10%
[10]; 7.6 mg/kg (LD50), 2 days after injection
  Percentage of urea-nitrogen in blood: 78%
[10]; 7.6 mg/kg (LD50), 4 days after injection
  Percentage of urea-nitrogen in blood: 148%
[10]; LD10 dose, 4 days after injection
  increase in the urea nitrogen content: about a quadruple increase
[4]
  LD10: 3 mg/kg
  LD50: 7.6 mg/kg
[6]; 4-8 mg/kg
  T/C (period of survival, treated/untreated): 106-121%
[11]
  complete cures: not observed
